According to ChEMBL document CHEMBL3885861, “Open TG-GATES”:

Organism: Rattus norvegicus
Experiment: Open TG-GATES - Regimen: Single
Type: toxicity, organism-based, Sprague-Dawley
Parameters: regimen Single, gender Male, age 6 weeks
Settings: in vivo, po, 50 mg/kg, route gavage, dose level Low; for APTT / Bas / Eos / Fbg / Hb / Ht / Lym / MCH / MCHC / MCV / Mono / Neu / PT / Plat / RBC / Ret / WBC: tissue Blood; for KIDNEY_L / KIDNEY_R / KIDNEY_TOTAL: tissue Kidney; for LIVER: tissue Liver; for A/G / ALP / ALT / AST / BUN / CRE / Ca / Cl / DBIL / GLC / IP / K / LDH / Na / PL / RALB / TBIL / TC / TG / TP / gamma-GTP: tissue Plasma

SMILES: CN1C(=O)CCS(=O)(=O)C1c1ccc(Cl)cc1 (configuration not stated) [CHLORMEZANONE]
- TERMINAL_BW (3 h): 228.4 g
- APTT (3 h): 16.7 s
- Bas (3 h): 0%
- Eos (3 h): 1%
- Fbg (3 h): 319.2 mg/dL
- Hb (3 h): 13.2 g/dL
- Ht (3 h): 39.3%
- Lym (3 h): 73.8%
- MCH (3 h): 21.6 pg
- MCHC (3 h): 33.6%
- MCV (3 h): 64.3 fL
- Mono (3 h): 4%
- Neu (3 h): 20.6%
- PT (3 h): 13 s
- Plat (3 h): 111.8 x10_4/uL
- RBC (3 h): 611.6 x10_4/ul
- Ret (3 h): 9.4%
- WBC (3 h): 84.7 x10_2/uL
- KIDNEY_L (3 h): 0.9 g
- KIDNEY_R (3 h): 0.9 g
- KIDNEY_TOTAL (3 h): 1.9 g
- LIVER (3 h): 10.4 g
- A/G (3 h): 0.9
- ALP (3 h): 1492 IU/L
- ALT (3 h): 52.6 IU/L
- AST (3 h): 80.2 IU/L
- BUN (3 h): 8.8 mg/dL
- CRE (3 h): 0.2 mg/dL
- Ca (3 h): 11.6 mg/dL
- Cl (3 h): 105.2 meq/L
- DBIL (3 h): 0.018 mg/dL
- GLC (3 h): 187 mg/dL
- IP (3 h): 9.6 mg/dL
- K (3 h): 4 meq/L
- LDH (3 h): 60.2 IU/L
- Na (3 h): 141.6 meq/L
- PL (3 h): 155 mg/dL
- RALB (3 h): 2.7 g/dL
- TBIL (3 h): 0.046 mg/dL
- TC (3 h): 83.6 mg/dL
- TG (3 h): 75.4 mg/dL
- TP (3 h): 5.7 g/dL
- gamma-GTP (3 h): 1 IU/L
- TERMINAL_BW (6 h): 227.2 g
- APTT (6 h): 15 s
- Bas (6 h): 0%
- Eos (6 h): 0.8%
- Fbg (6 h): 321.2 mg/dL
- Hb (6 h): 13.8 g/dL
- Ht (6 h): 40.9%
- Lym (6 h): 76.8%
- MCH (6 h): 21.6 pg
- MCHC (6 h): 33.7%
- MCV (6 h): 64.2 fL
- Mono (6 h): 3.4%
- Neu (6 h): 18.2%
- PT (6 h): 13.2 s
- Plat (6 h): 115.1 x10_4/uL
- RBC (6 h): 637.2 x10_4/ul
- Ret (6 h): 7.3%
- WBC (6 h): 83.9 x10_2/uL
- KIDNEY_L (6 h): 0.9 g
- KIDNEY_R (6 h): 1 g
- KIDNEY_TOTAL (6 h): 1.9 g
- LIVER (6 h): 9.5 g
- A/G (6 h): 0.9
- ALP (6 h): 1829.6 IU/L
- ALT (6 h): 38.6 IU/L
- AST (6 h): 71.4 IU/L
- BUN (6 h): 8.8 mg/dL
- CRE (6 h): 0.2 mg/dL
- Ca (6 h): 11.6 mg/dL
- Cl (6 h): 107 meq/L
- DBIL (6 h): 0.016 mg/dL
- GLC (6 h): 189.8 mg/dL
- IP (6 h): 10.3 mg/dL
- K (6 h): 4.1 meq/L
- LDH (6 h): 56.8 IU/L
- Na (6 h): 143.2 meq/L
- PL (6 h): 153 mg/dL
- RALB (6 h): 2.7 g/dL
- TBIL (6 h): 0.038 mg/dL
- TC (6 h): 78 mg/dL
- TG (6 h): 68.4 mg/dL
- TP (6 h): 5.7 g/dL
- gamma-GTP (6 h): 1.2 IU/L
- TERMINAL_BW (9 h): 227.8 g
- APTT (9 h): 14.1 s
- Bas (9 h): 0%
- Eos (9 h): 0.8%
- Fbg (9 h): 351 mg/dL
- Hb (9 h): 13.4 g/dL
- Ht (9 h): 39.3%
- Lym (9 h): 77.8%
- MCH (9 h): 22.3 pg
- MCHC (9 h): 34.1%
- MCV (9 h): 65.5 fL
- Mono (9 h): 2.2%
- Neu (9 h): 18%
- PT (9 h): 13.5 s
- Plat (9 h): 121.2 x10_4/uL
- RBC (9 h): 601.6 x10_4/ul
- Ret (9 h): 8%
- WBC (9 h): 76.9 x10_2/uL
- KIDNEY_L (9 h): 1 g
- KIDNEY_R (9 h): 0.9 g
- KIDNEY_TOTAL (9 h): 1.9 g
- LIVER (9 h): 9.2 g
- A/G (9 h): 0.9
- ALP (9 h): 1623.2 IU/L
- ALT (9 h): 34.4 IU/L
- AST (9 h): 71.6 IU/L
- BUN (9 h): 9.4 mg/dL
- CRE (9 h): 0.2 mg/dL
- Ca (9 h): 11.2 mg/dL
- Cl (9 h): 106.4 meq/L
- DBIL (9 h): 0.02 mg/dL
- GLC (9 h): 191.4 mg/dL
- IP (9 h): 11.9 mg/dL
- K (9 h): 4 meq/L
- LDH (9 h): 57.6 IU/L
- Na (9 h): 143.8 meq/L
- PL (9 h): 121.4 mg/dL
- RALB (9 h): 2.6 g/dL
- TBIL (9 h): 0.038 mg/dL
- TC (9 h): 67.2 mg/dL
- TG (9 h): 50.4 mg/dL
- TP (9 h): 5.5 g/dL
- gamma-GTP (9 h): 1 IU/L
- TERMINAL_BW (24 h): 234.7 g
- APTT (24 h): 16.1 s
- Bas (24 h): 0%
- Eos (24 h): 0.8%
- Fbg (24 h): 278.2 mg/dL
- Hb (24 h): 13.6 g/dL
- Ht (24 h): 39.7%
- Lym (24 h): 75%
- MCH (24 h): 21.7 pg
- MCHC (24 h): 34.4%
- MCV (24 h): 63.3 fL
- Mono (24 h): 3.4%
- Neu (24 h): 20.2%
- PT (24 h): 13 s
- Plat (24 h): 113.6 x10_4/uL
- RBC (24 h): 626.8 x10_4/ul
- Ret (24 h): 7.6%
- WBC (24 h): 72.4 x10_2/uL
- KIDNEY_L (24 h): 1.1 g
- KIDNEY_R (24 h): 1 g
- KIDNEY_TOTAL (24 h): 2.1 g
- LIVER (24 h): 11.3 g
- A/G (24 h): 0.9
- ALP (24 h): 1615.6 IU/L
- ALT (24 h): 45 IU/L
- AST (24 h): 77.4 IU/L
- BUN (24 h): 14.8 mg/dL
- CRE (24 h): 0.2 mg/dL
- Ca (24 h): 11.1 mg/dL
- Cl (24 h): 106.2 meq/L
- DBIL (24 h): 0.02 mg/dL
- GLC (24 h): 182.2 mg/dL
- IP (24 h): 7.4 mg/dL
- K (24 h): 4.2 meq/L
- LDH (24 h): 83 IU/L
- Na (24 h): 142 meq/L
- PL (24 h): 137.8 mg/dL
- RALB (24 h): 2.6 g/dL
- TBIL (24 h): 0.024 mg/dL
- TC (24 h): 80.4 mg/dL
- TG (24 h): 92.4 mg/dL
- TP (24 h): 5.6 g/dL
- gamma-GTP (24 h): 1.2 IU/L
